Laboratory results reported in patent publication US20230052740A1, “MODULATORS OF CIRCADIAN RHYTHMS AND USES THEREOF” (The Regents of the University of California, priority 2019, published 2023).
Where two headings read alike, the source gives them in different places.

Legend:
[1] = target: hMT1 (Homo sapiens, UniProt P48039); experiment: cAMP assay (GloSensor), isoproterenol-stimulated cAMP in HEK cells; type: cell-based; set-up: expressed in transfected cells; host or cells: HEK-T (HEK-293 T) cells, co-transfected with GloSensor DNA; conditions: for Emax: read-out: MT1 % Emax (converted); for EC50: read-out: EC50 at MT1
hMT1, sequence (P48039 whole entry): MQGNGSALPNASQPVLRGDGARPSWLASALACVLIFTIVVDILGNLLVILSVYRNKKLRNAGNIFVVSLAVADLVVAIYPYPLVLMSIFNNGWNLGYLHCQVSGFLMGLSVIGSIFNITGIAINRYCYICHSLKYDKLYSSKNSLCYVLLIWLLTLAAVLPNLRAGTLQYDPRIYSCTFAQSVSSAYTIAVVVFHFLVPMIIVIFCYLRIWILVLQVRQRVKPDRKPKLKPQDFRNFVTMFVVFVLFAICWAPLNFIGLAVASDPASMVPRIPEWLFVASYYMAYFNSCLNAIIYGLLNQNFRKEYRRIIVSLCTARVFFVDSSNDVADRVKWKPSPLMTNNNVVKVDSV
Method: HEK-293 T cells were maintained with complete Dulbecco's modified Eagle's medium (DMEM), which is composed of 10% fetal bovine serum (FBS), 2 mM L-glutamine, 100 units/ml penicillin G, 100 μg/ml streptomycin at 37° C. in the presence of 5% CO2
(§1) MT1 and MT2 receptors were tested using Promega's spilt luciferase based GboSensor cAMP biosensor technology. HEK-T cells were plated in 15 cm cell culture dish (at a density of 18 million cells) containing DMEM composed of 10% dialyzed FBS, 2 mM L-glutamine, 100 units/ml penicillin G, 100 μg/ml streptomycin for 4-6 hour. Then, cells were co-transfected with 8 μg of construct which encodes either MT1 or MT2 (de-Tangonized constructs) and […] of Glosensor DNA. Next day, transfected cells were seeded into poly-L-lysinecoated 384-well white clear bottom cell culture plates with complete DMEM with 1% dialized FBS at a density of 20,000 cells per well for another 24 h. The next day, cell medium were discarded and loaded with 20 μl of assay buffer (1×HBSS, 20 mM HEPES, pH 7.4, 0.1% BSA). To measure agonist activity of MT1 or MT2 receptor, 10 μl of test compound solution at 3× final concentration was added for 15 minutes followed by addition of 10 μl of luciferin/isoproterenol mixture (at a final concentration of 4 mM and 200 nM respectively) for another 15 mins for luminescence quantification. Then, plates were counted using SpectraMax luminescence reader (Molecular Device). Data were analyzed using GraphPad Prism 6.0.

[2] = target: T1, MT2 (Homo sapiens, UniProt P49286); experiment: as above; type: cell-based; set-up: expressed in transfected cells; host or cells: HEK-T (HEK-293 T) cells, co-transfected with GloSensor DNA; MT2 activity: dose or concentration left out as unconfirmed; conditions: for Emax: read-out: MT2 % Emax (converted); for EC50: inverse agonist, read-out: EC50 at MT2; for selectivity for MT2 over MT1: FIG. 7 analogs of '9032
T1 sequence (P49286 1-362): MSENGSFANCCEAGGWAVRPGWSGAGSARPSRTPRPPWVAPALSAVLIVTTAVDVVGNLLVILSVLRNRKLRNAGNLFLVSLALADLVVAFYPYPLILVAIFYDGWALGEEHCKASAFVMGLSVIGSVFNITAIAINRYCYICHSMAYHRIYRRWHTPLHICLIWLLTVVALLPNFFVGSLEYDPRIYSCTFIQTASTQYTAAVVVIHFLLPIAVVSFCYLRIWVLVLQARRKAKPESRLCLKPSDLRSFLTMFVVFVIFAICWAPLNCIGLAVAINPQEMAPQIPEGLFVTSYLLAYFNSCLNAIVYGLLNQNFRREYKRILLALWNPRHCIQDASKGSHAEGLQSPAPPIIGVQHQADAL
Method: as §1, with “Next day, transfected cells were seeded into poly-L-lysinecoated 384-well white clear bottom cell culture plates with complete DMEM with 1% dialized FBS at a density of 20,000 cells per well for another 24 h.” left out

[3] = HEK293, Table 1, agonist, normalized to melatonin response
[4] = HEK293, Table 1, cell marked Inverse (inverse agonist)
[5] = Table 1, cell marked Inverse (inverse agonist)
[6] = HEK293, Table 2, cell marked Inverse (inverse agonist)
[7] = Table 2, cell marked Inverse (inverse agonist)
[8] = HEK293, Table 2, agonist, normalized to melatonin response
[9] = Table 1, agonist, normalized to melatonin response

With `COCCN(Cc1ccc2c(c1)OCO2)c1nc(C(F)(F)F)ns1` [ZINC580731466] as the molecule, how does the Emax [1, 3] read?
The Emax was 71%.

And the “MT1 pEC50” value ([1]; Table 1, agonist)?
The value was 5.70 ± 0.13.

And the “selectivity for the MT2 receptor” value [2]?
The value was about 100 fold.

What about the Emax [2, 3] of the same molecule?
The Emax was 98%.

For `CCOC(=O)c1nc(N(C)CC2CCCC2O)ccc1Br` (stereo not shown) [ZINC603324490], which Emax [1, 4] is on record?
The Emax was 37%.

And the “MT1 pEC50” value [1, 5]?
Its value is 5.92 ± 0.29.

What about the MT1 efficacy ([1]; in the concentration range of its MT2 inverse agonism (600 nM)) of the same molecule?
Its MT1 efficacy is “without substantial MT1 efficacy”.

What about the Emax [2, 4] of the same molecule?
Its Emax is 202%.

And the EC50 [2]?
The EC50 was 0.6 µM.

With `CCc1nc(SCc2cccc(C(=O)OC)c2)nc(O)c1C` [ZINC576887661] as the molecule, how does the Emax [1, 3] read?
The Emax was 83%.

What about the “MT1 pEC50” value ([1]; Table 1, agonist) of the same molecule?
Its value is 7.10 ± 0.19.

And the Emax [2, 3]?
Its Emax is 68%.

Which results are given for `Cc1nnc(-c2cccc(NCc3ccc(Cl)cc3)c2)[nH]1` [ZINC37781620]?
Emax [1, 6]: 19%; MT1 pEC50 [1, 7]: 7.90 ± 0.90; Emax [2, 6]: 120%; MT2 pEC50 [2, 7]: 6.20 ± 0.10

How did the Emax [1, 3] turn out when `COc1ccc(CN(C)C(=O)c2cccc(OC(F)F)c2)cc1O` [ZINC353044322] was run?
Its Emax is 87%.

And the “MT1 pEC50” value ([1]; Table 1, agonist)?
Its value is 5.48 ± 0.05.

And the EC50 ([1]; agonist)?
The EC50 was 2 to 6 µM.

And the MT2 activity [2]?
The MT2 activity was “without detectable MT2 activity”.

`CCC(=O)NC1Cc2ccccc2C(c2ccccc2)C1` (stereo not shown) [Compound 4P-PDOT, reference compound] was tested. Which “MT2 selectivity (agonist)” value ([2]; panel of widely-used MTR ligands) did it give?
The value was 150 fold.

Which Emax [1, 8] does the source give for `COc1ccc(CNc2cccc(-n3nccn3)c2)cc1` [ZINC864032792] here?
Its Emax is 57%.

What about the “MT1 pEC50” value ([1]; Table 2, agonist) of the same molecule?
The value was 7.49 ± 0.04.

And the Emax [2, 6]?
The Emax was 35%.

What about the “MT2 pEC50” value [2, 7] of the same molecule?
The value was 6.66 ± 0.08.

`COc1ccc(CNc2cccc(-c3nnc[nH]3)c2)cc1` [ZINC157665999] was tested. Which Emax [1, 3] did it give?
Its Emax is 63%.

And the “MT1 pEC50” value ([1]; Table 1, agonist)?
The value was 4.89 ± 0.38.

And the EC50 ([1]; agonist)?
The EC50 was 10 µM.

What about the Emax [2, 4] of the same molecule?
The Emax was 90%.

What about the “MT2 pEC50” value [2, 5] of the same molecule?
The value was 7.29 ± 0.16.

And the EC50 [2]?
The EC50 was 0.05 µM.

Which “efficacy at the MT2 receptor” value ([2]; panel of widely-used MTR ligands, in words) does the source give for `CCCCC(=O)NCCc1c(Cc2ccccc2)[nH]c2ccccc12` [DH97, reference compound] here?
Its value is “partial agonism”.

For `COc1ccc(CN(C(=O)C2CC2C)c2ccncc2)cc1` (stereo not shown) [ZINC151209032], which Emax [1, 3] is on record?
The Emax was 88%.

And the EC50 ([1]; agonist)?
The EC50 was 2 to 6 µM.

What about the MT2 activity [2] of the same molecule?
Its MT2 activity is “without detectable MT2 activity”.

With `COc1ccc(CNc2cccnc2)cc1` [ZINC5586789] as the molecule, how does the Emax [1, 8] read?
Its Emax is 37%.

And the “MT1 pEC50” value ([1]; Table 2, agonist)?
Its value is 6.81 ± 0.72.

What about the Emax [2, 8] of the same molecule?
Its Emax is 51%.

And the “MT2 pEC50” value ([2]; Table 2, agonist)?
The value was 8.07 ± 0.15.

Which Emax [1, 6] does the source give for `Clc1ccc(CNc2cccc(-c3nnc[nH]3)c2)c(Cl)c1` [ZINC157676497] here?
The Emax was 60%.

What about the “MT1 pEC50” value [1, 7] of the same molecule?
The value was 7.32 ± 0.05.

And the Emax [2, 6]?
Its Emax is 62%.

What about the “MT2 pEC50” value [2, 7] of the same molecule?
Its value is 6.01 ± 0.30.

Which results are given for `COc1ccc(CNc2cccnc2C)cc1C` [ZINC91496083]?
Emax [1, 8]: 66%; MT1 pEC50 ([1]; Table 2, agonist): 4.65 ± 0.44; Emax [2, 8]: 106%; MT2 pEC50 ([2]; Table 2, agonist): 7.15 ± 0.17

For `COC(=O)c1ccc(CSc2nnc(C3CC3)[nH]2)s1` [ZINC159050207], which “selectivity for the MT1 v. the MT2 receptor type” value [1] is on record?
Its value is 2 fold.

What about the “MT1 % Emax” value [1, 9] of the same molecule?
The value was 99 ± 1%.

And the “Emax(%) at MT1” value ([1]; agonist)?
The value was 99±1%.

What about the “pEC50 at MT1” value ([1]; agonist) of the same molecule?
Its value is 9.00±0.15.

What about the “MT2 % Emax” value [2, 9] of the same molecule?
The value was 83 ± 3%.

Which Emax [1, 8] does the source give for `COc1ccc(CN(C(=O)OC2CCC2)c2ccncc2)cc1` [ZINC497291360] here?
The Emax was 92%.

And the “MT1 pEC50” value ([1]; Table 2, agonist)?
Its value is 7.05 ± 0.10.

And the “selectivity for MT2 over MT1” value [2]?
The value was 2 fold.

What about the Emax [2, 8] of the same molecule?
Its Emax is 75 ± 50.1%.

What about the “MT2 pEC50” value ([2]; Table 2, agonist) of the same molecule?
The value was 7.48 ± 0.05.

`COc1ccc(CN(C(=O)c2ccccc2F)c2ccncc2)cc1` [ZINC151192780] was tested. Which Emax [1, 8] did it give?
The Emax was 54%.

What about the “MT1 pEC50” value ([1]; Table 2, agonist) of the same molecule?
Its value is 5.18 ± 0.22.

And the “selectivity for MT2 over MT1” value [2]?
The value was 200 fold.

And the Emax [2, 8]?
The Emax was 95%.

And the “MT2 pEC50” value ([2]; Table 2, agonist)?
Its value is 7.13 ± 0.12.

With `COc1cccc2c1CCN(C(=O)c1ccc(F)nc1)C2` [ZINC182731037] as the molecule, how does the Emax [1, 3] read?
Its Emax is 82%.

What about the “MT1 pEC50” value ([1]; Table 1, agonist) of the same molecule?
Its value is 5.30 ± 0.09.

What about the EC50 ([1]; agonist) of the same molecule?
The EC50 was 2 to 6 µM.

And the MT2 activity [2]?
Its MT2 activity is “without detectable MT2 activity”.

With `COC(=O)c1csc(CSc2nnc(C3CC3)[nH]2)c1` [ZINC713465976] as the molecule, how does the Emax [1, 8] read?
Its Emax is 101%.

What about the “MT1 pEC50” value ([1]; Table 2, agonist) of the same molecule?
The value was 7.75 ± 0.22.

And the Emax [2, 8]?
The Emax was 94%.

And the “MT2 pEC50” value ([2]; Table 2, agonist)?
Its value is 8.23 ± 0.11.
